Test results taken from patent US20250280827A1, “An antifungal composition comprising natamycin and at least one insecticide” (priority 2021, published 2025).

Experiments:
[1] = system: Colletotrichum spp.; test: Antifungal effect against Colletotrichum infection on wounded skin of pepper fruits (Colby synergy); format: in vivo
From the text: wherein X and Y are the observed antifungal activities (in %) of the individual active ingredients x and y, respectively. If the observed antifungal activity (O in %) of the combination exceeds the expected antifungal activity (E in %) of the combination and the synergy factor O/E is thus >1.0, the combined application of the active ingredients leads to a synergistic antifungal effect. […]
For the treatment, 5 wounds per pepper side were done as previously described. In addition, one wound was done as negative control. Depending on the number of sides of the pepper, 3 to 4 treatments were done per paprika. Per wound 10 μl of treatment was placed on the wound. The treatments were let to dry in a down flow cabinet for about 30 minutes. After drying 5 μl spore suspension at a concentration of 10^7 spores per ml were placed on the wounds. The fungus was isolated from Colletotrichum-infected plant material and identified using techniques known to the person skilled in the art. The pepper were placed as described previously in a transparent container, with the difference that the containers were then placed in a transparent plastic zipper bag. The bags with peppers were placed at room temperature and in the dark for two days. After that the size of the lesions were measured. Assessment of the infection area was 4 days after inoculation. Experiment was performed in 5-fold.
(§1) The fungus was isolated from Colletotrichum-infected plant material and identified using techniques known to the person skilled in the art. Assessment of the infection area was performed 5 days after inoculation. Experiment was performed in 5-fold.
as §1, with “The active ingredient imidacloprid was formulated as described in Table 2. Imidacloprid belonging to IRAC Group 4. The” for “The”
The fungus was isolated from Colletotrichum-infected plant material and identified using techniques known to the person skilled in the art. Assessment of the efficacy was 5 days after inoculation. Experiment was performed in 5-fold.
The fungus was isolated from Colletotrichum-infected plant material and identified using techniques known to the person skilled in the art. Assessment of the infection area was performed 6 days after inoculation. Experiment was performed in 5-fold.
The fungus was isolated from Colletotrichum-infected plant material and identified using techniques known to the person skilled in the art. Assessment of the infection area was performed 4 days after inoculation. Experiment was performed in 5-fold.

[2] = system: Sclerotinia sclerotiorum; test: Antifungal effect against Sclerotinia sclerotiorum infection on wounded skin of broad bean pods (rot area, Colby synergy); format: in vivo
From the text: The Colby equation (Colby, 1967. Weeds 15:20-22) calculates the expected antifungal activity (E in %) of a combination comprising more than one active ingredients:
wherein X and Y are the observed antifungal activities (in %) of the individual active ingredients x and y, respectively. If the observed antifungal activity (O in %) of the combination exceeds the expected antifungal activity (E in %) of the combination and the synergy factor O/E is thus >1.0, the combined application of the active ingredients leads to a synergistic antifungal effect.
• 1) Control (without natamycin and lambda-cyhalothrin) • 2) Natamycin at a level of 15 ppm • 3) Lambda-cyhalothrin (in the product KARATE ZEON® of Syngenta) at a levels of 0.15 ppm, 0.6 ppm, 3 ppm and 15 ppm • 4) Natamycin at a level of 15 ppm combined with lambda-cyhalothrin at levels of 0.15 ppm, 0.6 ppm, 3 ppm or 15 ppm.
Used pathogen: Sclerotinia sclerotiorum.
Application: The broad bean pods were washed under tap water, and were subsequently surface sterilized by placing them in a 0.1% sodium hypochlorite solution for 5 minutes. The pods were then rinsed with tap water and dried. Transparent plastic containers were prepared by placing a piece of absorbing paper in the container and adding 25 ml of water, one container per treatment was used. The pods were cut in two, and two halve pods were incubated per box. The skin of broad bean pods was damaged with a needle, ø 2 mm and to a depth of about 3 mm into the fruit, with—depending on the size of the pod—2 to 4 wounds per half pod. In total, 6 wounds were incubated per treatment, of which 1 was used as a control. A volume of 20 microliter of a natamycin/insecticide composition, as presented herein above, was applied by pipette to each wound. The treatments were then left to air-dry. Once dried, a mycelium plug of Sclerotinia sclerotiorum was placed upside down on each wound, so that the mycelium was in direct contact with the wound. Per treatment 5 wounds were inoculated with the fungus, while the 6th and last wound was used as negative non-inoculated control. After inoculation, the containers were directly closed with a transparent plastic lid.
All pods were kept at room temperature (20° C.). Wounds of the pods were checked after 30 h of incubation.
Replicates: All treatments for the broad bean pod experiment were performed on two individual pod halves resulting in 5 wounds per treatment, while a sixth wound served as control.
The experiments were performed as described in Example 1.
The experiments were performed as described in Example 1. Assessment of the infection area was 23 h after inoculation. Experiment was performed in 5-fold.
The experiments were performed as described in Example 1. Thiamethoxam belongs to IRAC Group 4. Assessment of the infection area was 31 hours after inoculation. Experiment was performed in 5-fold.
The experiments were performed as described in Example 1. The product SPECTRE® of company (Adama) containing the active ingredient chlorfenapyr belonging to IRAC Group 13 was tested. Assessment of the infection area was 23 hours after inoculation. Experiment was performed in 5-fold.

[3] = natamycin-insecticide 0:0.01 ppm, 4 days after inoculation, Table 13
[4] = natamycin-insecticide 0:0.04 ppm, 4 days after inoculation, Table 13
[5] = natamycin-insecticide 0:1 ppm, 4 days after inoculation, Table 13
[6] = natamycin:abamectin 0:0.01 ppm, 4 days after inoculation, Table 20
[7] = natamycin:abamectin 0:0.04 ppm, 4 days after inoculation, Table 20
[8] = natamycin-insecticide 0-0.15 ppm, 23 h after inoculation, Table 7
[9] = natamycin-insecticide 0-0.6 ppm, 23 h after inoculation, Table 7
[10] = natamycin-insecticide 0-3 ppm, 23 h after inoculation, Table 7
[11] = natamycin-insecticide 0-15 ppm, 23 h after inoculation, Table 7
[12] = natamycin-insecticide 0:0.01 ppm, 5 days after inoculation, Table 17
[13] = natamycin-insecticide 0:0.04 ppm, 5 days after inoculation, Table 17
[14] = natamycin-insecticide 0:1 ppm, 5 days after inoculation, Table 17
[15] = natamycin-insecticide 0-0.15 ppm, 31 hours after inoculation, Table 8
[16] = natamycin-insecticide 0-0.6 ppm, 31 hours after inoculation, Table 8
[17] = natamycin-insecticide 0-3 ppm, 31 hours after inoculation, Table 8
[18] = natamycin-insecticide 0-15 ppm, 31 hours after inoculation, Table 8
[19] = natamycin-insecticide 0-0.15 ppm, 23 hours after inoculation, Table 9
[20] = natamycin-insecticide 0-0.6 ppm, 23 hours after inoculation, Table 9
[21] = natamycin-insecticide 0-3 ppm, 23 hours after inoculation, Table 9
[22] = natamycin-insecticide 0-15 ppm, 23 hours after inoculation, Table 9
[23] = natamycin:fipronil 0:0.01 ppm, 6 days after inoculation, Table 19
[24] = natamycin:fipronil 0:0.04 ppm, 6 days after inoculation, Table 19
[25] = natamycin:fipronil 0:1 ppm, 6 days after inoculation, Table 19

Compound: emamectin benzoate [emamection benzoate]
- Avg infected area [1, 3]: 30.6 mm2
- Observed antifungal activity [1, 3]: −90.1%
- Avg infected area [1, 4]: 16.6 mm2
- Observed antifungal activity [1, 4]: −3.5%
- Avg infected area [1, 5]: 24 mm2
- Observed antifungal activity [1, 5]: −49.1%

Compound: abamectin
- Avg infected area [1, 6]: 29.0 mm2
- Observed antifungal activity [1, 6]: −29.3%
- Avg infected area [1, 7]: 30.7 mm2
- Observed antifungal activity [1, 7]: −37.0%

Compound: C/C=C(\C)C(=O)O[C@H]1C[C@@H](OC(C)=O)[C@@]2(C(=O)OC)CO[C@H]3[C@@H](O)[C@@](C)([C@]45O[C@@]4(C)[C@H]4C[C@@H]5O[C@@H]5OC=C[C@@]54O)[C@H]4[C@]1(CO[C@]4(O)C(=O)OC)[C@@H]32 [azadirachtin]
- Avg infected area [2, 8]: 80.2 mm2
- Observed antifungal activity [2, 8]: 41.3%
- Avg infected area [2, 9]: 82.0 mm2
- Observed antifungal activity [2, 9]: 40%
- Avg infected area [2, 10]: 98.3 mm2
- Observed antifungal activity [2, 10]: 28.1%
- Avg infected area [2, 11]: 123.1 mm2
- Observed antifungal activity [2, 11]: 9.9%

Compound: CNC(=O)c1cc(Cl)cc(C)c1NC(=O)c1cc(Br)nn1-c1ncccc1Cl [chlorantraniliprole, 5-bromo-N-[4-chloro-2-methyl-6-(methylcarbamoyl)phenyl]-2-(3-chloropyridin-2-yl) pyrazole-3-carboxamide]
- Avg infected area [1, 12]: 38.8 mm2
- Observed antifungal activity [1, 12]: 29.8%
- Avg infected area [1, 13]: 55.6 mm2
- Observed antifungal activity [1, 13]: −0.7%
- Avg infected area [1, 14]: 66.4 mm2
- Observed antifungal activity [1, 14]: −20.2%

Compound: CN1COCN(Cc2cnc(Cl)s2)C1=N[N+](=O)[O-] [thiamethoxam, N-[3-[(2-chloro-1,3-thiazol-5-yl)methyl]-5-methyl-1,3,5-oxadiazinan-4-ylidene]nitramide]
- Avg infected area [2, 15]: 250.6 mm2
- Observed antifungal activity [2, 15]: 2.9%
- Avg infected area [2, 16]: 270.9 mm2
- Observed antifungal activity [2, 16]: −4.9%
- Avg infected area [2, 17]: 253.2 mm2
- Observed antifungal activity [2, 17]: 1.9%
- Avg infected area [2, 18]: 254.1 mm2
- Observed antifungal activity [2, 18]: 1.6%

Compound: CCOCn1c(-c2ccc(Cl)cc2)c(C#N)c(Br)c1C(F)(F)F [chlorfenapyr]
- Avg infected area [2, 19]: 86.9 mm2
- Observed antifungal activity [2, 19]: 23.6%
- Avg infected area [2, 20]: 71.3 mm2
- Observed antifungal activity [2, 20]: 37.3%
- Avg infected area [2, 21]: 92.3 mm2
- Observed antifungal activity [2, 21]: 18.8%
- Avg infected area [2, 22]: 94.9 mm2
- Observed antifungal activity [2, 22]: 16.5%

Compound: N#Cc1nn(-c2c(Cl)cc(C(F)(F)F)cc2Cl)c(N)c1[S+]([O-])C(F)(F)F (racemic) [fipronil, (±)-5-amino-1-(2,6-dichloro-α,α,α-trifluoro-p-tolyl)-4-trifluoromethyl sulfinylpyrazole-3-carbonitrile]
- Avg infected area [1, 23]: 88.2 mm^2
- Observed antifungal activity [1, 23]: −76.1%
- Avg infected area [1, 24]: 76.8 mm^2
- Observed antifungal activity [1, 24]: −53.4%
- Avg infected area [1, 25]: 80.4 mm^2
- Observed antifungal activity [1, 25]: −60.5%
